Three compounds from US20230393140A1, “BINDING ASSAYS INVOLVING A PLURALITY OF SYNTHETIC COMPOUNDS, TARGETS, AND COUNTER TARGETS” (SRI International, priority 2020, published 2023) can be followed below.

In one test the target is T1, cRaf/K-Ras (G12V) PPI (Homo sapiens, UniProt P01116, G12V).
T1 construct: b-Kras G12V (GppNHp) (aa 2-169); biotin (b-
As to the kind of experiment: K-Ras-cRaf HTRF-based PPI profiling.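 As to blank corrected HTRF: background is the signal of wells with all components except cRaf.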 The note with it: for HillSlope: curve fit of % binding, K-Ras G12V 30 nM, GST-cRaf 10 nM; for blank corrected HTRF: raw data, compounds without fluorescein. Type of test: biochemical. On the procedure: In some experimental embodiments, a buffer was added to the assay wells which included […] HEPES pH 7.4, 150 mM NaCl, 5 mM MgCl2, 1 mM DTT, 0.005% NP40, and 1% DMSO. 5 uL of 3×K-Ras protein was then added to the assay wells, followed by the synthetic compounds which were added using acoustic technology (ECHO, Labcyte) followed by thirty minutes incubation at room temperature. Afterwards, 5 uL of 3×cRaf protein was added to the assay wells and 5 uL of detection mix was then added to the assay wells after 30 minutes. The detection mix included Mab anti-GST-Tb cryptate (Cisbio 61GSTTLB) and streptavidin-XL665 (Ex/Em=(337/665; 620) in PHERAstar (BMG Labtech)). HTRF signal was measured […] later.
The data includes raw data (signal-background without cRaf protein but with all other component), % binding (relative to DMSO controls), and curve fits. Curve fits were performed when the activities at the highest concentration of the synthetic compounds were less than 65%. Tables 18A-18B below includes the raw data (e.g., blank corrected HTRF) and Tables 19A-19B includes the % binding.

The next test addresses T2, K-Ras (Homo sapiens, UniProt P01116, G12V).
T2 construct: purchased Cytoskeleton Inc. CS-RS04
As to the kind of experiment: MST binding affinity of resynthesized NNP hits to K-Ras. On the procedure: Loading was performed according to the following protocol: The 200 μM stock solution of the target protein was diluted to 10 μM in 20 mM HEPES pH 8.0, 150 mM NaCl, 10 mM MgCl2, 1 mM TCEP, 0.05% Tween-20 (total volume 110 μL). 10 μL were set aside for later labeling quality control. EDTA pH 8.0 (stock concentration 10 mM) was added to the protein solution to a final concentration of 80 μM. GTP (stock concentration 50 mM) was added to the protein solution to a final concentration of 750 μM. The solution was incubated at 30° C. for 2 hours (PCR tube) and then placed on ice for 2 minutes. MgCl2 was added to the protein solution to a final concentration of 100 mM. The resulting protein solution was buffer exchanged into the buffer required in the labeling kit for labeling. […] All the other target molecules (TNFα, IL-6, IL-6R and ASGPR) were used as received without any additional treatment.
(§1) Hit binding affinity to various targets were determined using Microscale Thermophoresis (MST). MST experiments were performed on a Monolith NT.115pico (NanoTemper Technologies GmbH, Munich, Germany). Measurements were performed at room temperature, in triplicate with incubation periods of 15, 30 and 45 minutes. […] Targets were labeled using Nanotemper Monolith 2nd Generation Protein Labeling Kits. RED-MALEIMIDE (Maleimide-647-dye) labeling kit was used for K-Ras and RED-NHS (NHS-647-dye) labeling kit was used for IL-6, IL-6R, TNFα and ASGPR. The buffer for the ASGPR contained 20 mM HEPES pH 7.4, 150 mM NaCl, 10 mM MgCl2, 2 mM CaCl2, 0.05% Pluronic F-127, and 1 mM DTT; for IL-6 contained 20 mM HEPES pH 7.4, 150 mM KCl, 10 mM MgCl2, and 0.1% Pluronic F-127; for the soluble IL-6 receptor 20 mM HEPES pH 7.4, 150 mM NaCl, 10 mM MgCl2, and 0.05% Tween-20; for K-Ras 20 mM HEPES pH 7.4, 150 mM NaCl, 10 mM MgCl2, 0.05% Tween-20 and 1 mM DTT; for TNFα 10 mM HEPES pH 7.4, 150 mM NaCl, 10 mM MgCl2, 0.05% Polysorbate-20. Triplicate data was analyzed using MO.AffinityAnalysis software (NanoTemper Technologies GmbH).

A further test concerns biotinylated GST. As to the kind of experiment: Interference check with biotinylated GST and detection mix. An excerpt:
Table 20 below provides an interference check on the synthetic compounds using biotinylated GST, which was used with the detection mix to check for compound effect on fluorescence.

A further test has as its target TNFα (Homo sapiens, UniProt P01375). As to the kind of experiment: MST binding affinity of resynthesized NNP hits to TNFα. Also noted: purchased R&D Systems, Inc. 210-TA/CF. Particulars: read-out: KD (nM) [95% conf. int], NNP2 library hit, target TNFα, one-site binding model. On the procedure:
as §1

Setting [1] is: K-Ras, compound with fluorescein on N-term, read-out: KD[nM] in MST (with fluorescein on N-term).
The mark [2] stands for this setting: read-out: KD (nM) [95% conf. int], MST, NNP1 library hit, target K-Ras, one-site binding model.

Like-named read-outs stand apart in the source and are kept apart here. Marks after values point to notes of the source that are not given here. Numbered stars: 1 amine (or outer) side, 2 acyl side, 3 side chain; on linkers, the order of the positions; unused ones are H or OH. Square brackets hold non-standard residues; d marks the D form. Peptide text beside a SMILES is read from it. * marks the point of attachment. 5FAM = O=C1OC2(c3ccc(O)cc3Oc3cc(O)ccc32)c2ccc(C(=O)*)cc21; NHCH2C6H4(4-CH2CONH2) = NC(=O)Cc1ccc(CN*)cc1; X1 = O=C(Cc1ccc(CN[*:1])cc1)[*:2]

Sequence of TNFα (P01375 77-233 limits assumed): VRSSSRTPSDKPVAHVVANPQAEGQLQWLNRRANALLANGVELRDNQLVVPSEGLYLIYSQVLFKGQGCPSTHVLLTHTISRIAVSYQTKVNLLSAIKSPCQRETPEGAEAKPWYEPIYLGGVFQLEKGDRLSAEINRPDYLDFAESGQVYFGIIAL

As to `CC(C)C[C@H](NC(=O)[C@@H](CCC(=O)O)NC(=O)[C@@H](CCCNC(=N)N)NC(=O)[C@@H](CO)NC(=O)[C@H](NC(=O)Cc1ccc(CNC(=O)[C@H](C)NC(=O)[C@@H](CO)NC(=O)CNC(=O)[C@@H](CO)NC(=O)[C@H]2CCCN2C(=O)Cc2ccc(CNC(=O)[C@H](Cc3ccccc3)NC(=O)[C@@H](CCC(=O)O)NC(=O)[C@@H](Cc3c[nH]cn3)NC(=O)[C@H]3CCCN3C(=O)[C@@H](CO)NC(=O)c3ccc4c(c3)C(=O)OC43c4ccc(O)cc4Oc4cc(O)ccc43)cc2)cc1)[C@H](C)O)C(=O)NCc1ccc(CC(=O)N2CCC[C@@H]2C(=O)N[C@H](CCCCN)C(=O)N[C@H](Cc2ccc(O)cc2)C(=O)N[C@H](CCCNC(=N)N)C(=O)N[C@@H](Cc2ccccc2)C(=O)NCc2ccc(CC(=O)N[C@H](CCCNC(=N)N)C(=O)N[C@H](Cc3ccc(O)cc3)C(=O)N[C@@H](C(=O)N[C@H](CCC(=O)O)C(=O)N[C@@H](C)C(=O)NCc3ccc(CC(=O)NCC(=O)N[C@H](Cc4c[nH]c5ccccc45)C(=O)N[C@H](Cc4c[nH]cn4)C(=O)N[C@H](CCCNC(=N)N)C(=O)N[C@@H](C)C(=O)NCc4ccc(CC(N)=O)cc4)cc3)[C@H](C)O)cc2)cc1` [KRAS-1-6] (5FAM-[dS][dP][dH][dE]F[X1][dP][dS]G[dS]A[X1][dT][dS][dR][dE]L[X1][dP][dK][dY][dR]F[X1][dR][dY][dT][dE]A[X1]G[dW][dH][dR]A-{NHCH2C6H4(4-CH2CONH2)}), the HillSlope on cRaf/K-Ras (G12V) PPI is −0.8822. The “blank corrected HTRF” value on cRaf/K-Ras (G12V) PPI (conc. 1.00E−05) is recorded as 3880; on cRaf/K-Ras (G12V) PPI (conc. 1.11E−06), 9200; on cRaf/K-Ras (G12V) PPI (conc. 1.23E−07), 13441; at cRaf/K-Ras (G12V) PPI (conc. 1.52E−09), 13652; on cRaf/K-Ras (G12V) PPI (conc. 3.33E−06), 5253; at cRaf/K-Ras (G12V) PPI (conc. 3.70E−07) it was 11760. The “blank corrected HTRF” value on cRaf/K-Ras (G12V) PPI (conc. 4.12E−08) is reported as 13672. The Kd on K-Ras (setting [1]) and at K-Ras (setting [2]) was 21 nM throughout. In addition, the “% signal compared to DMSO” value is listed as 103.1% in the test with biotinylated GST (assay conc. 0.000508053 μM); 102.7% with biotinylated GST (assay conc. 0.001524158 μM); 102.4% in the test with biotinylated GST (assay conc. 0.004572474 μM); 102.5% with biotinylated GST (assay conc. 0.013717421 μM); 102.9% in the test with biotinylated GST (assay conc. 0.041152263 μM); 100.3% in the test with biotinylated GST (assay conc. 0.12345679 μM). The “% signal compared to DMSO” value is on record as 100.7% in the test with biotinylated GST (assay conc. 0.37037037 μM), 89.85% in the test on biotinylated GST (assay conc. 1.111111111 μM), 74.45% with biotinylated GST (assay conc. 3.333333333 μM) and 62.03* % with biotinylated GST (assay conc. 19 μM).

In the case of `CC(C)C[C@H](NC(=O)[C@@H](CCC(=O)O)NC(=O)[C@H]1CCCN1C(=O)[C@@H](Cc1ccccc1)NC(=O)[C@@H](CO)NC(=O)c1ccc2c(c1)C(=O)OC21c2ccc(O)cc2Oc2cc(O)ccc21)C(=O)NCc1ccc(CC(=O)NCC(=O)N[C@@H](C(=O)N2CCC[C@@H]2C(=O)N[C@H](CCCNC(=N)N)C(=O)N[C@@H](C)C(=O)NCc2ccc(CC(=O)N3CCC[C@@H]3C(=O)N[C@H](CO)C(=O)N[C@H](CCC(=O)O)C(=O)N[C@H](CCCNC(=N)N)C(=O)NCC(=O)NCc3ccc(CC(=O)N4CCC[C@@H]4C(=O)N[C@H](CCCCN)C(=O)N[C@H](Cc4ccc(O)cc4)C(=O)N[C@H](CCCNC(=N)N)C(=O)N[C@@H](Cc4ccccc4)C(=O)NCc4ccc(CC(=O)N[C@H](CCCNC(=N)N)C(=O)N[C@H](Cc5ccccc5)C(=O)N5CCC[C@@H]5C(=O)N[C@@H](C(=O)NCC(=O)NCc5ccc(CC(=O)NCC(=O)N[C@H](Cc6c[nH]c7ccccc67)C(=O)N[C@H](Cc6c[nH]cn6)C(=O)N[C@H](CCCNC(=N)N)C(=O)N[C@@H](C)C(=O)NCc6ccc(CC(N)=O)cc6)cc5)C(C)C)cc4)cc3)cc2)C(C)C)cc1` [KRAS-1-9] (5FAM-[dS][dF][dP][dE]L[X1]G[dV][dP][dR]A[X1][dP][dS][dE][dR]G[X1][dP][dK][dY][dR]F[X1][dR][dF][dP][dV]G[X1]G[dW][dH][dR]A-{NHCH2C6H4(4-CH2CONH2)}), the HillSlope at cRaf/K-Ras (G12V) PPI is given as −0.9902. Also, the “blank corrected HTRF” value at cRaf/K-Ras (G12V) PPI (conc. 1.00E−05) worked out at 4707; on cRaf/K-Ras (G12V) PPI (conc. 1.11E−06), 7790; at cRaf/K-Ras (G12V) PPI (conc. 1.37E−08), 12329; at cRaf/K-Ras (G12V) PPI (conc. 3.33E−06), 3269; on cRaf/K-Ras (G12V) PPI (conc. 3.70E−07), 12513; on cRaf/K-Ras (G12V) PPI (conc. 4.12E−08) it was 14333. In addition, the “blank corrected HTRF” value at cRaf/K-Ras (G12V) PPI (conc. 4.57E−09) is on record as 13688. For the same compound, the Kd on K-Ras (setting [1]) and at K-Ras (setting [2]) was 32 nM each time. Besides, the “% signal compared to DMSO” value with biotinylated GST (assay conc. 0.000508053 μM) is on record as 99.72%; with biotinylated GST (assay conc. 0.001524158 μM), 102.8%; with biotinylated GST (assay conc. 0.004572474 μM), 100.2%; with biotinylated GST (assay conc. 0.013717421 μM) it was 101.4%; in the test with biotinylated GST (assay conc. 0.041152263 μM), 102.8%; in the test with biotinylated GST (assay conc. 0.12345679 μM), 101.5%. In addition, the “% signal compared to DMSO” value is 99.8% in the test with biotinylated GST (assay conc. 0.37037037 μM), 92.41% in the test with biotinylated GST (assay conc. 1.111111111 μM), 69.59% with biotinylated GST (assay conc. 3.333333333 μM) and 53.69* % in the test on biotinylated GST (assay conc. 10 μM).

Turning to `CC(C)C[C@H](NC(=O)[C@@H](CCCCN)NC(=O)[C@@H](Cc1ccccc1)NC(=O)Cc1ccc(CNC(=O)[C@H](CC(C)C)NC(=O)[C@@H](CCCCN)NC(=O)[C@@H](CC(C)C)NC(=O)Cc2ccc(CNC(=O)[C@H](Cc3ccccc3)NC(=O)[C@@H](C)NC(=O)[C@@H](C)NC(=O)Cc3ccc(CNC(=O)[C@H](CC(C)C)NC(=O)[C@H](NC(=O)[C@@H](CCCCN)NC(=O)c4ccc5c(c4)C(=O)OC54c5ccc(O)cc5Oc5cc(O)ccc54)C(C)C)cc3)cc2)cc1)C(=O)NCc1ccc(CC(=O)N[C@H](Cc2c[nH]c3ccccc23)C(=O)N[C@H](CCCNC(=N)N)C(=O)N[C@H](C(=O)NCc2ccc(CC(=O)N[C@H](CO)C(=O)N[C@H](CO)C(=O)N[C@@H](Cc3ccccc3)C(=O)NCc3ccc(CC(=O)N[C@H](Cc4c[nH]cn4)C(=O)N[C@H](CCC(=O)O)C(=O)N[C@@H](CC(C)C)C(=O)NCc4ccc(CC(=O)N[C@H](Cc5ccccc5)C(=O)N[C@H](CCCCN)C(=O)N[C@@H](Cc5ccccc5)C(=O)NCc5ccc(CC(=O)N[C@@H](C(=O)N[C@H](CCC(=O)O)C(=O)N[C@@H](CC(C)C)C(=O)NCc6ccc(CC(N)=O)cc6)[C@H](C)O)cc5)cc4)cc3)cc2)C(C)C)cc1` [TNF-31-2] (5FAM-[dK][dV]L[X1][dA][dA]F[X1][dL][dK]L[X1][dF][dK]L[X1][dW][dR]V[X1][dS][dS]F[X1][dH][dE]L[X1][dF][dK]F[X1][dT][dE]L-{NHCH2C6H4(4-CH2CONH2)}), on TNFα, the Kd came to 23 nM.
